Test results from PMC7503225, “Repositioning Dequalinium as Potent Muscarinic Allosteric Ligand by Combining Virtual Screening Campaigns and Experimental Binding Assays” (International Journal of Molecular Sciences, 2020).

What was measured:
[1] = ref DrugBank [16]; cited from earlier work
[2] = target: five human muscarinic receptors subtypes (hM1–hM5); test: Equilibrium binding, summary statements over the five subtypes
Experimental: (§1) All tested compounds were purchased from Merck KGaA (Darmstadt, Germany). The radioligand binding experiments were performed with membranes from Chinese Hamster Ovary (CHO) cells stably transfected with the five cloned human muscarinic receptor subtypes (hM1-5). Membrane fractions were prepared according to the protocol, which have been previously described; membranes were stored at −80 °C until use. Nonspecific binding was defined by the radioactivity bound in the presence of 10 µM atropine.
(§2) Aliquots of membranes (25–70 µg/mL) were added and incubated for 2 h at room temperature, filtered through UniFilter GF/B plates (PerkinElmer Life and Analytical Science, Monza, Italy) using a FilterMate cell harvester (PerkinElmer Life and Analytical Science, Monza, Italy). The filters were washed several times with ice-cold MilliQ water. Then, the plates were counted in a β-counter (TopCount NXT microplate scintillation counter, PerkinElmer Life and Analytical Science, Monza, Italy).
(§3) Data points from radioligand inhibition binding curve were fitted to models using nonlinear regression equation to determine inhibitor potency (IC50) estimates, which were then converted to Ki values as appropriate.
(§4) All the results are expressed as means ± SEM obtained from 3-4 independent experiments each one performed in duplicate.

hM5 muscarinic receptor = target: T1, hM5 muscarinic receptor (Homo sapiens, UniProt P08912); test: Equilibrium inhibition binding with [3H]-NMS, CHO cell membranes; settings: [3H]-NMS 0.2 nM, CHO membranes, mean ± SEM of 3-4 experiments; read-out: pKi hM5 (converted)
T1 construct: expressed in transfected cells; host or cells: CHO cells, stably transfected; membrane fractions
T1 sequence (P08912 1-532): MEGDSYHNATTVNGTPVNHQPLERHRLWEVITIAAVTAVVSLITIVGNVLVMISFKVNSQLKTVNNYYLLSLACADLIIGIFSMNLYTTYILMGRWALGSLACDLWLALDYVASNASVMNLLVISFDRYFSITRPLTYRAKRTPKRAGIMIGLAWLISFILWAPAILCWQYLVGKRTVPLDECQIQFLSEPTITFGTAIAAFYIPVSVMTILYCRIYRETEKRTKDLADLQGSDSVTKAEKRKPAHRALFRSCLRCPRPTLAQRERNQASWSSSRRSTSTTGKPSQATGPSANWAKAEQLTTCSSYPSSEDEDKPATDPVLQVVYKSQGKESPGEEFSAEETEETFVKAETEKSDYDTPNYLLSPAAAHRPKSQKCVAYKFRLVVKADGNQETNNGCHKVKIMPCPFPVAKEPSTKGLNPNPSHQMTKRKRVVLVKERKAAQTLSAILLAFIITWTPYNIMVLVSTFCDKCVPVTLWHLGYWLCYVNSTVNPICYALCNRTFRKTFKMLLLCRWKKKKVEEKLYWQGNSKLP
Experimental: as §1, §2, §3, §4

hM4 muscarinic receptor = target: T2, hM4 muscarinic receptor (Homo sapiens, UniProt P08173); test: as above; settings: [3H]-NMS 0.2 nM, CHO membranes, mean ± SEM of 3-4 experiments; read-out: pKi hM4 (converted)
T2 construct: expressed in transfected cells; host or cells: CHO cells, stably transfected; membrane fractions
T2 sequence (P08173 1-479): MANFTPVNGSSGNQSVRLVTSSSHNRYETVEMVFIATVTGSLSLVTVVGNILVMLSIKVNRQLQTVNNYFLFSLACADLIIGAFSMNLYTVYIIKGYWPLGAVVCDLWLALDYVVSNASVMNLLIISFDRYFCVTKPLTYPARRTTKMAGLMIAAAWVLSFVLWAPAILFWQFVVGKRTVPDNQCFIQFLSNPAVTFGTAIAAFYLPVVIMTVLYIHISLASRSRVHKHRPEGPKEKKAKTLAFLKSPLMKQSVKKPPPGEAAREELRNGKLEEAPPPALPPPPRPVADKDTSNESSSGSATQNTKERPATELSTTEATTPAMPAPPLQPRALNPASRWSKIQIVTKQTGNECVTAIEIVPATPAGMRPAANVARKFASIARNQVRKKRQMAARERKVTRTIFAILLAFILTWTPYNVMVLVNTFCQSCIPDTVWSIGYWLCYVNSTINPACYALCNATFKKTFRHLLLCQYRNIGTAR
Experimental: as §1, §2, §3, §4

[3] = target: T3, [3H]-NMS-occupied muscarinic hM2 subtype (Homo sapiens, UniProt P08172); test: One point kinetic (off-rate) assay of [3H]-NMS dissociation; assay type: binding; settings: read-out: Log Kocc hM2 (converted)
T3 construct: expressed in transfected cells; host or cells: CHO cells, stably transfected; membrane fractions
T3 sequence (P08172 1-466): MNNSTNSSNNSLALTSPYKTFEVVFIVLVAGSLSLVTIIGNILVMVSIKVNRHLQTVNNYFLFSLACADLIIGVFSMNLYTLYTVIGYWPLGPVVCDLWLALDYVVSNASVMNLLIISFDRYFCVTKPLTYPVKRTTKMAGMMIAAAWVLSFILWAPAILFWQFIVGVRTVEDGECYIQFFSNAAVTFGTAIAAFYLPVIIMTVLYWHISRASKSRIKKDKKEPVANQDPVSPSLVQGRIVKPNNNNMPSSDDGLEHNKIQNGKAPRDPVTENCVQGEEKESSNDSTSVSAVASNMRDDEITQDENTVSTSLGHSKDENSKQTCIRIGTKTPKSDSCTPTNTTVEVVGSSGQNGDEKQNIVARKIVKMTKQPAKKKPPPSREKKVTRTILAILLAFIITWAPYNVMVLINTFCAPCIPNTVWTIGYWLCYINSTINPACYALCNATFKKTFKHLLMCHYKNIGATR
Experimental: as §1
Off-rate assays were performed as described elsewhere to estimate the affinity of the ligands for the [^3H]-NMS-occupied receptor (log Kocc). Briefly, a high concentration of membranes (about 0.1 mg/mL) was incubated with a high concentration of [^3H]-NMS (2 nM) for 60 min at room temperature (mix membrane). Next, 100 µL aliquots were distributed into polypropylene tubes that were empty or in a final volume of 1 mL binding buffer with 1 µM atropine alone and in the presence of a range of concentrations of tested compound (1 nM–0.1 mM).
The effect on the radioligand dissociation of each tested ligand was determined at 0 min and at one time point, which was chosen to be ca 2.5 dissociation half-lives of [^3H]-NMS alone from each subtype receptors. Later (80 min for hM1, 20 min for hM2 and 70 min for hM5), the samples were filtered and counted as previously reported. Non specific binding was measured as previously reported.
as §4

hM1 muscarinic receptor = target: T4, hM1 muscarinic receptor (Homo sapiens, UniProt P11229); test: Equilibrium inhibition binding with [3H]-NMS, CHO cell membranes; settings: [3H]-NMS 0.2 nM, mean ± SEM of 3-4 experiments, read-out: pKi hM1 (converted)
T4 construct: expressed in transfected cells; host or cells: CHO cells, stably transfected; membrane fractions
T4 sequence (P11229 1-460): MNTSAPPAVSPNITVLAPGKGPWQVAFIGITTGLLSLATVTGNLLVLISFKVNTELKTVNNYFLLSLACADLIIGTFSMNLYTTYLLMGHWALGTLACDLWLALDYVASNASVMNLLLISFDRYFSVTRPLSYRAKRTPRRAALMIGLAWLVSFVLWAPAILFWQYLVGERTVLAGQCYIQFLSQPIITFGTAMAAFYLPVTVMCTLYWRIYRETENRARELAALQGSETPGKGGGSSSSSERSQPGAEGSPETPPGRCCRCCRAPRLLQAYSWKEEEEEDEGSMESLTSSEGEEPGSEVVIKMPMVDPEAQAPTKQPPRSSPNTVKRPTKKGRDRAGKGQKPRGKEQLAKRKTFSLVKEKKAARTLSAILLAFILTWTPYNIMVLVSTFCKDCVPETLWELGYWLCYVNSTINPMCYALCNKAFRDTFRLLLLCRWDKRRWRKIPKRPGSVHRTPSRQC
Experimental: as §1, §2, §3, §4

hM2 muscarinic receptor = target: T5, hM2 muscarinic receptor (Homo sapiens, UniProt P08172); test: as above; settings: [3H]-NMS 0.2 nM, mean ± SEM of 3-4 experiments, read-out: pKi hM2 (converted)
T5 construct: expressed in transfected cells; host or cells: CHO cells, stably transfected; membrane fractions
T5 sequence (P08172 1-466): T3 sequence (P08172 1-466)
Experimental: as §1, §2, §3, §4

hM3 muscarinic receptor = target: T6, hM3 muscarinic receptor (Homo sapiens, UniProt P20309); test: as above; settings: [3H]-NMS 0.2 nM, mean ± SEM of 3-4 experiments, read-out: pKi hM3 (converted)
T6 construct: expressed in transfected cells; host or cells: CHO cells, stably transfected; membrane fractions
Experimental: as §1, §2, §3, §4

T6 sequence (P20309 whole entry): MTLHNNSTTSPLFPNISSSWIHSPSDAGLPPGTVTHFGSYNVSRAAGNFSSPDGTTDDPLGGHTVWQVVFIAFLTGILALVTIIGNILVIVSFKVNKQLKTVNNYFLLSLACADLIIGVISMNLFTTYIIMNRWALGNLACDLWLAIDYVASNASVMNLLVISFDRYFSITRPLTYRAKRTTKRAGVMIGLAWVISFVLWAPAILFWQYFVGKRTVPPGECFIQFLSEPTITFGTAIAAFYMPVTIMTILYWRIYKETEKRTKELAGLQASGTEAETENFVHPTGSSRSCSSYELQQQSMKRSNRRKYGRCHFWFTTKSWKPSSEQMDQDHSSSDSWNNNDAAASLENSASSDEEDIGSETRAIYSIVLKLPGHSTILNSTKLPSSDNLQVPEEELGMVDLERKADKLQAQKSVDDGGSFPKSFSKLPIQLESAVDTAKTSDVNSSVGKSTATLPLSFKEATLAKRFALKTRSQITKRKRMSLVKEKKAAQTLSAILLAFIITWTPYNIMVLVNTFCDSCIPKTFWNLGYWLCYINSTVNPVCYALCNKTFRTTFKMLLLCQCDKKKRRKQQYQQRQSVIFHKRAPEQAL

Row | SMILES | logP [1] | also measured
1 | CC(C)(C)C(=O)OCOP(=O)(COCCn1cnc2c(N)ncnc21)OCOC(=O)C(C)(C)C [adefovir dipivoxil] | 1.5 | 
2 | COCCCOc1cc(C[C@@H](C[C@H](N)[C@@H](O)C[C@H](C(=O)NCC(C)(C)C(N)=O)C(C)C)C(C)C)ccc1OC [aliskiren] | 3.3 | pKi values (muscarinic subtypes overall) [2]: devoid of affinity for all muscarinic receptors; Ki (hM5 muscarinic receptor): > 100 µM; Ki (hM4 muscarinic receptor): > 100 µM
3 | C=CCNc1nc(NCC=C)nc(N2CCN(C(c3ccc(F)cc3)c3ccc(F)cc3)CC2)n1 [almitrine] | 4.1 | 
4 | CC[N+](CC)(CCNC(=O)C(=O)NCC[N+](CC)(CC)Cc1ccccc1Cl)Cc1ccccc1Cl [ambenonium] | 2.3 | 
5 | CC(C)COCC(CN(Cc1ccccc1)c1ccccc1)N1CCCC1 (stereo not drawn) [bepridil] | 5.2 | 
6 | CCNC(=O)CCC/C=C\C[C@@H]1[C@@H](/C=C/[C@@H](O)CCc2ccccc2)[C@H](O)C[C@@H]1O [bimatoprost] | 3.4 | 
7 | COc1ccccc1OCCNCC(O)COc1cccc2[nH]c3ccccc3c12 (stereo not drawn) [carvedilol] | 3.1 | 
8 | CC(=O)N(O)CCCCCNC(=O)CCC(=O)N(O)CCCCCNC(=O)CCC(=O)N(O)CCCCCN [deferoxamine] | 0.9 | 
9 | CN(CCCCCCCCCCN(C)C(=O)Oc1cccc([N+](C)(C)C)c1)C(=O)Oc1cccc([N+](C)(C)C)c1 [demecarium] | 0.6 | 
10 | N=C(N)c1ccc(/N=N/Nc2ccc(C(=N)N)cc2)cc1 [diminazene] |  | pKi values (muscarinic subtypes overall) [2]: around 5; Kd [3]: 155 µM; Ki (hM1 muscarinic receptor): 3.16 µM; Ki (hM5 muscarinic receptor): 4.79 µM; Ki (hM4 muscarinic receptor): 8.91 µM; Ki (hM2 muscarinic receptor): 5.62 µM; Ki (hM3 muscarinic receptor): 4.79 µM
11 | CCCCC[C@H](O)/C=C/[C@H]1[C@H](O)CC(=O)[C@@H]1C/C=C\CCCC(=O)O [dinoprostone] | 2.8 | 
12 | CC[N+](CC)(CC)CCOc1cccc(OCC[N+](CC)(CC)CC)c1OCC[N+](CC)(CC)CC [gallamine] |  | Ki (hM5 muscarinic receptor): 2.19 µM; Ki (hM4 muscarinic receptor): 0.794 µM
13 | C[N+](C)(CCCCCC[N+](C)(C)C1c2ccccc2-c2ccccc21)C1c2ccccc2-c2ccccc21 [hexafluronium] | 1.8 | 
14 | CC#CCC(C)[C@H](O)/C=C/[C@@H]1[C@H]2C/C(=C/CCCC(=O)O)C[C@H]2C[C@H]1O (stereo partly drawn) [iloprost] | 4.2 | 
